Tested on: Plasmodium berghei
Assay: Luciferase/luciferin-expressing antifolate-resistant parasites were used to infect a culture of HepG2 cells that were pre-incubated with compounds. Infected hepatocytes emit light due to the luciferase reaction. Assay results are presented as the percent inhibition of light emission compared to control. […]
Type: functional
Details: sporozoite; for IC90: read-out: LUCIFERASE INFECTION ASSAY - IC90
[1] = read-out: LUCIFERASE INFECTION ASSAY - IC50

For `Cc1nn(-c2ccccc2)c(N2CCCC2)c1/C=N/O`, the IC50 [1] was over 10 µM and the IC90 was over 10 µM.

Molecule `CC(=O)c1ccc(NC(=O)N2[C@@H]3CC[C@@H](C3)[C@H]2c2nc3cccc(OCc4ccccc4)c3[nH]2)cc1` has an IC50 (FFLUC_HILL_SLOPE 3.04, FFLUC_R_SQUARED 0.885, read-out: LUCIFERASE INFECTION ASSAY - IC50) of over 10 µM and an IC90 of over 10 µM.

`CCCc1ccc(-c2csc(NC(=O)CC(NC(=O)c3ccccc3Cl)c3ccccc3)n2)cc1` (stereo not drawn) gave an IC50 (FFLUC_HILL_SLOPE 390, FFLUC_R_SQUARED 0.412, read-out: LUCIFERASE INFECTION ASSAY - IC50) of over 10 µM and an IC90 of over 10 µM.

Molecule `Cc1ccccc1COC(=O)C1(NC(=O)NCc2ccccc2)CCCC1` has an IC50 [1] of over 10 µM and an IC90 of over 10 µM.

For `CC(=O)Oc1cccc(C(=O)N2CC3ON=C(c4c(F)cccc4Cl)C3C2)c1C` (stereo not drawn), the IC50 [1] was over 10 µM and the IC90 was over 10 µM.

For `CC(C)(C)c1ccc(OCC(=N)NC(=O)c2ccc(OC(F)(F)F)cc2)cc1`, the IC50 [1] was over 8.37 µM and the IC90 was over 8.37 µM.

With `CCOC(=O)c1c(NC(=O)Cn2c(=O)c(C#N)c3n(c2=O)CCC3)sc(C)c1CC` the IC50 (PBLUC_HILL_SLOPE 0.645, PBLUC_R_SQUARED 0.0864, read-out: LUCIFERASE INFECTION ASSAY - IC50) was over 10 µM and the IC90 was over 10 µM.

Work on `N#Cc1cccc(NC(=O)CNc2cc(C(F)(F)F)ccc2N2CCCC2)c1` yielded an IC50 [1] of over 10 µM and an IC90 of over 10 µM.

`CCC(=O)Nc1c(-c2nc3ccccc3[nH]2)c(C)c(C)n1C1CCCC1` was tested, and the IC50 (PBLUC_HILL_SLOPE 2, PBLUC_R_SQUARED 0.418, read-out: LUCIFERASE INFECTION ASSAY - IC50) was 6.01 µM and the IC90 was over 9.42 µM.

`CCN(CC)c1ccc(C(=O)NNS(=O)(=O)c2c(F)cc(F)c(Cl)c2F)cc1` was tested, and the IC50 (HEPG2TOX_HILL_SLOPE 9.38, HEPG2TOX_R_SQUARED 0.741, PBLUC_HILL_SLOPE 14.6, PBLUC_R_SQUARED 0.427, read-out: LUCIFERASE INFECTION ASSAY - IC50) was 9.22 µM and the IC90 was over 10 µM.

In the case of `Cn1nc(C(C)(C)C)cc1NC(=O)Nc1cc(Cl)cc(Cl)c1`, the IC50 [1] is reported as over 9.67 µM and the IC90 is reported as over 9.67 µM.

For `CCc1ccc(N(C(=O)C2CCN(C(=O)C(C)(C)C)CC2)c2nc3ccccc3s2)cc1`, the IC50 [1] was over 10 µM and the IC90 was over 10 µM.

`N#C/C(=C\c1ccc(N(c2ccccc2)c2ccccc2)cc1)C(=O)Nc1nccs1` showed an IC50 [1] of 0.525 µM and an IC90 of 1.79 µM.

With `CC(C)(C)c1cc(C(=O)OCC(=O)N2CCCCC2)cc(C(C)(C)C)c1` the IC50 (PBLUC_HILL_SLOPE 1.88, PBLUC_R_SQUARED 0.16, read-out: LUCIFERASE INFECTION ASSAY - IC50) was 8.44 µM and the IC90 was over 10 µM.

In the case of `N#CC1C(=N)Oc2c3c(c4ccccc4c2C1c1ccc(Cl)cc1)C(c1ccc(Cl)cc1)C(C#N)C(=N)O3` (stereo not drawn), the IC50 (FFLUC_HILL_SLOPE 2.7, FFLUC_R_SQUARED 0.81, HEPG2TOX_HILL_SLOPE 15, HEPG2TOX_R_SQUARED 0.458, PBLUC_HILL_SLOPE 19.3, PBLUC_R_SQUARED 0.191, read-out: LUCIFERASE INFECTION ASSAY - IC50) is reported as 5.72 µM and the IC90 is reported as over 6.14 µM.

`COc1ccc2c(c1)CCCC21NC(=O)N(Cc2cc(=O)n3cc(C)ccc3n2)C1=O` (stereo not drawn) gave an IC50 (PBLUC_HILL_SLOPE 1.52, PBLUC_R_SQUARED 0.761, read-out: LUCIFERASE INFECTION ASSAY - IC50) of 0.324 µM and an IC90 of 1.38 µM.

With `O=C(NCC1COc2ccccc2O1)c1cc2ccccc2cc1O` (stereo not drawn) the IC50 [1] was over 10 µM and the IC90 was over 10 µM.

For `O=C(CCc1cccnc1)Nc1nc(-c2ccc3c(c2)OCCO3)cs1`, the IC50 [1] was over 10 µM and the IC90 was over 10 µM.

With `O=S(=O)(/C=C/c1ccccc1)N1CCSc2ccc(Cl)cc21` the IC50 (HEPG2TOX_HILL_SLOPE 12.6, HEPG2TOX_R_SQUARED 0.499, PBLUC_HILL_SLOPE 12.6, PBLUC_R_SQUARED 0.783, read-out: LUCIFERASE INFECTION ASSAY - IC50) was 3.58 µM and the IC90 was 4.27 µM.

Work on `O=C(Nc1cc([N+](=O)[O-])ccc1Cl)Nc1ccccc1-c1nc2ccccc2[nH]1` yielded an IC50 [1] of over 10 µM and an IC90 of over 10 µM.

Work on `Cc1cc(C)c2c(c1)C(=O)/C(=C/c1ccc(N(C)CCC#N)cc1)CC2` yielded an IC50 [1] of over 10 µM and an IC90 of over 10 µM.

Work on `Cc1ccc(N(Cc2ccccc2)S(=O)(=O)c2ccc(S(C)(=O)=O)cc2)cc1` yielded an IC50 (PBLUC_HILL_SLOPE 2.12, PBLUC_R_SQUARED 0.413, read-out: LUCIFERASE INFECTION ASSAY - IC50) of 5.72 µM and an IC90 of over 10 µM.

With `CC(C)c1ccc(NC2=NN=C(c3cccs3)CS2)cc1` the IC50 (HEPG2TOX_HILL_SLOPE 7.09, HEPG2TOX_R_SQUARED 0.364, read-out: LUCIFERASE INFECTION ASSAY - IC50) was over 10 µM and the IC90 was over 10 µM.

In the case of `Cc1ccc(C(C)CCN2CCc3c(c(C(=O)NCc4nccs4)nn3CC3CC3)C2)o1` (stereo not drawn), the IC50 [1] is reported as over 7.28 µM and the IC90 is reported as over 7.28 µM.

In the case of `Cn1c(Nc2ccccc2)nc2cnc(Nc3ccc(Oc4ccccc4)cc3)cc21`, the IC50 (PBLUC_HILL_SLOPE 3.01, PBLUC_R_SQUARED 0.581, read-out: LUCIFERASE INFECTION ASSAY - IC50) is reported as 5.93 µM and the IC90 is reported as over 10 µM.

Molecule `Cn1cc(-c2cnc3ccc(Cc4ccc(F)cc4)nn23)cn1` has an IC50 (PBLUC_HILL_SLOPE 1.72, PBLUC_R_SQUARED 0.782, read-out: LUCIFERASE INFECTION ASSAY - IC50) of 4.99 µM and an IC90 of over 10 µM.

With `CCN1C(=O)N(Cc2cccc(OC)c2)C(=O)C12CCN(Cc1cn(C)c3ccccc13)CC2` the IC50 (PBLUC_HILL_SLOPE 4.47, PBLUC_R_SQUARED 0.0939, read-out: LUCIFERASE INFECTION ASSAY - IC50) was 6.08 µM and the IC90 was over 7.16 µM.

Molecule `Clc1ccc(-c2cnc3cnc(-c4ccco4)cn23)cc1` has an IC50 (FFLUC_HILL_SLOPE 15, FFLUC_R_SQUARED 0.745, PBLUC_HILL_SLOPE 1.06, PBLUC_R_SQUARED 0.544, read-out: LUCIFERASE INFECTION ASSAY - IC50) of 7.89 µM and an IC90 of over 11.2 µM.

For `COc1ccc(-c2c(C)nn3c(NCc4ccccn4)cc(C)nc23)cc1OC`, the IC50 (HEPG2TOX_HILL_SLOPE 8.52, HEPG2TOX_R_SQUARED 0.776, PBLUC_HILL_SLOPE 1.28, PBLUC_R_SQUARED 0.799, read-out: LUCIFERASE INFECTION ASSAY - IC50) was 1.34 µM and the IC90 was 7.49 µM.

Work on `COC(=O)c1c(NC(=O)c2ccoc2)c2cc(NCCc3ccccc3)cnc2n1Cc1ccccc1` yielded an IC50 (FFLUC_HILL_SLOPE 1.52, FFLUC_R_SQUARED 0.257, PBLUC_HILL_SLOPE 25.4, PBLUC_R_SQUARED 0.141, read-out: LUCIFERASE INFECTION ASSAY - IC50) of over 6.67 µM and an IC90 of over 6.67 µM.

With `Cc1cccc(COc2cccc(C(=O)Nc3cccc(Cn4ccnc4)c3)c2)c1` the IC50 (HEPG2TOX_HILL_SLOPE 5.55, HEPG2TOX_R_SQUARED 0.818, PBLUC_HILL_SLOPE 3.46, PBLUC_R_SQUARED 0.301, read-out: LUCIFERASE INFECTION ASSAY - IC50) was 6.78 µM and the IC90 was over 10 µM.

`O=C(CN1CSCC1=O)Nc1nc2ccccc2[nH]1` showed an IC50 [1] of over 10 µM and an IC90 of over 10 µM.

Molecule `Cc1cccc2sc(N(Cc3ccccc3)C(=O)C3CCN(C(=O)C(C)(C)C)CC3)nc12` has an IC50 [1] of over 10 µM and an IC90 of over 10 µM.

`CC(=O)Nc1cccc(-c2ccc3ncc(-c4ccc(CO)cc4)n3n2)c1` showed an IC50 [1] of 2.73 µM and an IC90 of 8.06 µM.

For `CCCCOc1ccc(Nc2nc(C(N)Cc3ccc(F)cc3)cs2)nn1` (stereo not drawn), the IC50 (PBLUC_HILL_SLOPE 19.3, PBLUC_R_SQUARED 0.0642, read-out: LUCIFERASE INFECTION ASSAY - IC50) was 8.34 µM and the IC90 was over 8.52 µM.

`NC(c1csc(NC(=O)Nc2cccc(C(F)(F)F)c2)n1)C1CCCCC1` (stereo not drawn) was tested, and the IC50 (PBLUC_HILL_SLOPE 23.3, PBLUC_R_SQUARED 0.126, read-out: LUCIFERASE INFECTION ASSAY - IC50) was 6.05 µM and the IC90 was 6.65 µM.

In the case of `CCOC(=O)N1C/C(=C/c2cccc(O)c2)C(=O)/C(=C/c2cccc(O)c2)C1`, the IC50 (FFLUC_HILL_SLOPE 6.86, FFLUC_R_SQUARED 0.64, HEPG2TOX_HILL_SLOPE 2, HEPG2TOX_R_SQUARED 0.958, PBLUC_HILL_SLOPE 1.44, PBLUC_R_SQUARED 0.817, read-out: LUCIFERASE INFECTION ASSAY - IC50) is reported as 2.02 µM and the IC90 is reported as 9.23 µM.

`COc1ccc(/C=C/c2ccc3c(Cl)cc(Cl)c(O)c3n2)cc1` was tested, and the IC50 (HEPG2TOX_HILL_SLOPE 0.83, HEPG2TOX_R_SQUARED 0.868, PBLUC_HILL_SLOPE 16.3, PBLUC_R_SQUARED 0.735, read-out: LUCIFERASE INFECTION ASSAY - IC50) was 0.375 µM and the IC90 was 0.43 µM.

`Cc1ccc(-c2cnc3ccc(NC4CCOCC4)nn23)cc1` showed an IC50 [1] of 3.16 µM and an IC90 of 10.4 µM.

In the case of `CC(Oc1ccc(Oc2ccc(C(F)(F)F)cc2)cc1)C(=O)N1CCN(c2ccc(C(F)(F)F)cn2)CC1` (stereo not drawn), the IC50 (HEPG2TOX_HILL_SLOPE 2.54, HEPG2TOX_R_SQUARED 0.907, PBLUC_HILL_SLOPE 2.4, PBLUC_R_SQUARED 0.3, read-out: LUCIFERASE INFECTION ASSAY - IC50) is reported as 3 µM and the IC90 is reported as over 6.12 µM.

Molecule `CCN1C(=O)N(CCCc2cccnc2)C(=O)C12CCN(Cc1cnc(-c3ccccc3)s1)CC2` has an IC50 (HEPG2TOX_HILL_SLOPE 2.98, HEPG2TOX_R_SQUARED 0.92, PBLUC_HILL_SLOPE 12.2, PBLUC_R_SQUARED 0.164, read-out: LUCIFERASE INFECTION ASSAY - IC50) of 6.3 µM and an IC90 of over 6.74 µM.

With `CCN(CC)S(=O)(=O)c1cc(C(=O)c2c(-c3ccc(Cl)cc3)cc3ccccn23)ccc1F` the IC50 (HEPG2TOX_HILL_SLOPE 0.422, HEPG2TOX_R_SQUARED 0.219, read-out: LUCIFERASE INFECTION ASSAY - IC50) was over 10 µM and the IC90 was over 10 µM.

With `Cc1ccc(C(=O)Cn2c(=O)n(C3CCCCC3)c(=O)c3ccccc32)cc1` the IC50 (FFLUC_HILL_SLOPE 15.7, FFLUC_R_SQUARED 0.382, PBLUC_HILL_SLOPE 31.1, PBLUC_R_SQUARED 0.0716, read-out: LUCIFERASE INFECTION ASSAY - IC50) was over 8.77 µM and the IC90 was over 8.77 µM.

`CCCCCCCCc1nnc(NC(=O)c2nccnc2N)s1` was tested, and the IC50 (PBLUC_HILL_SLOPE 9.5, PBLUC_R_SQUARED 0.438, read-out: LUCIFERASE INFECTION ASSAY - IC50) was 3.63 µM and the IC90 was 4.58 µM.

— ChEMBL document CHEMBL4483862, “Open-source discovery of chemical leads for next-generation chemoprotective antimalarials” (2018)
